Experimental data published in ChEMBL document CHEMBL4385627, “Rational approaches, design strategies, structure activity relationship and mechanistic insights for therapeutic coumarin hybrids” (Bioorg Med Chem, 2019).
Converted amounts (≈) assume the structure as drawn.

Columns and labels:
Rattus norvegicus [1] = test: Antitumor activity against NMU challenged Sprague-Dawley rat assessed as tumor volume at 5 mg/kg, po administered once per day for 6 weeks via gavage followed by NMU post challenge for 2 weeks (reference value: 4.8 +/- 0.14 mm3); format: functional
MCF7 = test: Growth inhibition of human MCF7 cells by SRB assay; format: functional
MDA-MB-435 = test: Growth inhibition of human MDA-MB-435 cells by SRB assay; format: functional
Staphylococcus aureus [2] = test: Antibacterial activity against Staphylococcus aureus MTCC 96 by agar dilution method; format: functional
Candida albicans = test: Antifungal activity against Candida albicans MTCC 227 by agar dilution method; format: functional
Aspergillus clavatus = test: Antifungal activity against Aspergillus clavatus MTCC 1323 by agar dilution method; format: functional
Aspergillus niger = test: Antifungal activity against Aspergillus niger MTCC 282 by agar dilution method; format: functional
Escherichia coli = test: Antibacterial activity against Escherichia coli MTCC 443 by agar dilution method; format: functional
Pseudomonas aeruginosa = test: Antibacterial activity against Pseudomonas aeruginosa MTCC 1688 by agar dilution method; format: functional
Urease = Urease (Canavalia ensiformis, UniProt P07374); test: Inhibition of jack bean urease incubated for 30 mins by indophenol method
Chain of Urease (P07374 whole entry): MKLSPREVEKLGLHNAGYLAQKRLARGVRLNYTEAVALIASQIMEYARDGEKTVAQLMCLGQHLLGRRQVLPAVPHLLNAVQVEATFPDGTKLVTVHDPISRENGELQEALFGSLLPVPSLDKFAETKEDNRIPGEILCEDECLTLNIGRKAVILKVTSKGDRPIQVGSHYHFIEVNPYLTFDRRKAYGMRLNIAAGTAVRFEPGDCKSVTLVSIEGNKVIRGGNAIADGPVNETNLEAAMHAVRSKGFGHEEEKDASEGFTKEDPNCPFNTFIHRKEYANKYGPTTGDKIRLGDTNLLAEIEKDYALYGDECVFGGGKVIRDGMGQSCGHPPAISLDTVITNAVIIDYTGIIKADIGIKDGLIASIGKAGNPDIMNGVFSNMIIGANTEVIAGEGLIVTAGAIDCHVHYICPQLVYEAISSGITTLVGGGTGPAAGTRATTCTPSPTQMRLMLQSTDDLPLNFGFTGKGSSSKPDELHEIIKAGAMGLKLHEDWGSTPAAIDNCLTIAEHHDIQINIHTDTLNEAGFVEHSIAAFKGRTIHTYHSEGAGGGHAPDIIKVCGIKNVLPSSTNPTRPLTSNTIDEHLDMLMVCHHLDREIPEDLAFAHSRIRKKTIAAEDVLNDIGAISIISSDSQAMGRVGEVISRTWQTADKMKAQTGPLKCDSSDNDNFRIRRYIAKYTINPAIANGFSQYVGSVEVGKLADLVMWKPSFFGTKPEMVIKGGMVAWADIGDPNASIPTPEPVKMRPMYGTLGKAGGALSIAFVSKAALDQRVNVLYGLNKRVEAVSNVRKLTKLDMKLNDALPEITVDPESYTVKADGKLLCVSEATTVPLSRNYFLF

[3] = Inhibition of calf intestinal alkaline phosphatase using p-nitrophenyl phosphate as substrate preincubated for 10 mins followed by substrate addition and measured after 30 mins by spectrometry based assay; design: species or system Bos taurus
[4] = Inhibition of calf ALR2 using DL-glyceraldehyde as substrate preincubated for 5 mins followed by NADPH addition and measured after 10 mins by spectrophotometric analysis; design: species or system Bos taurus
A549 = test: Cytotoxicity against human A549 cells incubated for 24 hrs by MTT assay; format: functional, cell-based; settings: A549, 24 h
[5] = Inhibition of bovine kidney ALR1 using sodium D-glucoronic acid as substrate preincubated for 5 mins followed by NADPH addition and measured after 10 mins by spectrophotometric analysis; design: species or system Bos taurus
Leishmania major [6] = test: Antileishmanial activity against Leishmania major at 100 uM incubated for 72 hrs by MTT assay relative to control; format: functional
Leishmania major [7] = test: Antileishmanial activity against Leishmania major at 10 uM incubated for 72 hrs by MTT assay relative to control; format: functional
Leishmania major [8] = test: Antileishmanial activity against Leishmania major at 1 uM incubated for 72 hrs by MTT assay relative to control; format: functional
Leishmania major [9] = test: Antileishmanial activity against Leishmania major at 0.1 uM incubated for 72 hrs by MTT assay relative to control; format: functional
[10] = molecular target: Amyloid-beta precursor protein (Homo sapiens) (UniProt P05067); test: Inhibition of amyloid beta (1 to 40) (unknown origin) aggregation at 1 uM incubated for 1 hr by thioflavin T fluorescence spectroscopic method relative to control
Chain of Amyloid-beta precursor protein (Homo sapiens) (P05067 whole entry): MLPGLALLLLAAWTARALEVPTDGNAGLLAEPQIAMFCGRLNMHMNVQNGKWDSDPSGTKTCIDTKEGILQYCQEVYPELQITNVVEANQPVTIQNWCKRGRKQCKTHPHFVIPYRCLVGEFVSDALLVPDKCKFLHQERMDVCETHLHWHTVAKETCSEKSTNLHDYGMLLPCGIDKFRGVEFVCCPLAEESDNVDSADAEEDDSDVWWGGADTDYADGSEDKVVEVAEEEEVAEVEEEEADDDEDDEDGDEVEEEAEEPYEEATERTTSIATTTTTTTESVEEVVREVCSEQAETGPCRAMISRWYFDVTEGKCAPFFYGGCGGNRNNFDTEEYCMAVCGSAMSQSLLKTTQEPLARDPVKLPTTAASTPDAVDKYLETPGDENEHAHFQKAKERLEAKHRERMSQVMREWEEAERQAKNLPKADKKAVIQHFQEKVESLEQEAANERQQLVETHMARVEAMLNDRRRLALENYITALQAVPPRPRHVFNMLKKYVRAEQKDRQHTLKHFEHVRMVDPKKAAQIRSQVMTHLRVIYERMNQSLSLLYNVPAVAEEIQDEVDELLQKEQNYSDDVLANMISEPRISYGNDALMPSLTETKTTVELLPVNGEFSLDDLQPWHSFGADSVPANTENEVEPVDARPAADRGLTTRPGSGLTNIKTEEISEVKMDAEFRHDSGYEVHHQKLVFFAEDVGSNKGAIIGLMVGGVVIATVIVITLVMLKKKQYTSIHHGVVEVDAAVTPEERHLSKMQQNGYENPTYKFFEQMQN

[11] = Antioxidant activity assessed as superoxide anion radical scavenging activity by cyclic voltammetric analysis; format: functional
Staphylococcus aureus [12] = test: Antimicrobial activity against Staphylococcus aureus incubated for 16 hrs by agar-well diffusion method; format: functional
NCI-H157 [13] = test: Growth inhibition of human NCI-H157 cells at 10 uM incubated for 48 hrs by SRB assay relative to control; format: functional; settings: NCI-H157, 48 h, read-out: GI
NCI-H157 [14] = test: Growth inhibition of human NCI-H157 cells at 1 uM incubated for 48 hrs by SRB assay relative to control; format: functional; settings: NCI-H157, 48 h, read-out: GI
NCI-H157 [15] = test: Growth inhibition of human NCI-H157 cells at 100 uM incubated for 48 hrs by SRB assay relative to control; format: functional; settings: NCI-H157, 48 h, read-out: GI
NCI-H157 [16] = test: Growth inhibition of human NCI-H157 cells at 0.1 uM incubated for 48 hrs by SRB assay relative to control; format: functional; settings: NCI-H157, 48 h, read-out: GI
Rattus norvegicus [17] = test: Antiinflammatory activity in Wistar rat assessed as reduction in formalin-induced paw edema volume at 20 mg/kg, po administered 1 hr prior to formalin challenge and measured over 0 to 6 hrs post formalin challenge by plethysmography relative to control; format: functional
HOP-92 = test: Growth inhibition of human HOP92 cells at 10 uM after 48 hrs by SRB assay relative to control; format: functional; settings: HOP-92, 48 h, read-out: GI
[18] = Antioxidant activity assessed as ABTS radical cation scavenging ability
A498 = test: Growth inhibition of human A498 cells at 10 uM after 48 hrs by SRB assay relative to control; format: functional; settings: A498, 48 h, read-out: GI
[19] = Inhibition of rat intestinal maltase-glucoamylase using p-nitrophenyl alpha-D-glucoside as substrate preincubated for 5 mins followed by substrate addition and measured after 30 mins by spectrophotometric analysis
Alpha glucosidase = Alpha glucosidase (Homo sapiens, UniProt O43451+P10253+P14410+Q2M2H8); test: Inhibition of alpha-glucosidase (unknown origin) using p-NPG as substrate preincubated for 5 mins followed by substrate addition and measured after 30 mins by spectrophotometric analysis; format: protein assay
[20] = Growth inhibition of BHK21 cells at 10 uM incubated for 48 hrs by SRB assay relative to control; format: cell-based, Mesocricetus auratus, BHK-21; settings: hamster, read-out: GI
[21] = Growth inhibition of BHK21 cells at 100 uM incubated for 48 hrs by SRB assay relative to control; format: cell-based, Mesocricetus auratus, BHK-21; settings: hamster, read-out: GI
[22] = Growth inhibition of BHK21 cells at 1 uM incubated for 48 hrs by SRB assay relative to control; format: cell-based, Mesocricetus auratus, BHK-21; settings: hamster, read-out: GI
[23] = Growth inhibition of BHK21 cells at 0.1 uM incubated for 48 hrs by SRB assay relative to control; format: cell-based, Mesocricetus auratus, BHK-21; settings: hamster, read-out: GI
Acetylcholinesterase = Acetylcholinesterase (Homo sapiens, UniProt P22303); test: Inhibition of human recombinant AchE using acetylthiocholine iodide as substrate preincubated for 5 mins followed by substrate addition and measured at 2 mins interval by Ellman's method
Chain of Acetylcholinesterase (P22303 whole entry): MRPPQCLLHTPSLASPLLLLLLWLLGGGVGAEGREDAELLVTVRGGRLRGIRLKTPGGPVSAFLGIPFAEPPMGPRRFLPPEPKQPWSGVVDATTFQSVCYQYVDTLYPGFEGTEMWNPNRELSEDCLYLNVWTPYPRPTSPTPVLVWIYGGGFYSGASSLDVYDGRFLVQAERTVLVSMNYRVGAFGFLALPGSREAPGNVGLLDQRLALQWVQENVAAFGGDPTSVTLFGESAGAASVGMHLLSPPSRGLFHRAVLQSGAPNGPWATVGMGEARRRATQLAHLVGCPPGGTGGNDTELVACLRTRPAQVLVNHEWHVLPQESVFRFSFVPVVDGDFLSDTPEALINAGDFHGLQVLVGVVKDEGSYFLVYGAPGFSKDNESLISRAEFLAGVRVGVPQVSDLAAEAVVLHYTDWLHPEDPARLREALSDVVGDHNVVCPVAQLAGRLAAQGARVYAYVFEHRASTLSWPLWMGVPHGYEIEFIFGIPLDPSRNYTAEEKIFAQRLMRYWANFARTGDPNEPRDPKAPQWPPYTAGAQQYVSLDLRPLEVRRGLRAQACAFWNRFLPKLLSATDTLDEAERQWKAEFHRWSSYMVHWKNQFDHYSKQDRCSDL

[24] = Inhibition of Saccharomyces cerevisiae alpha-glucosidase using p-nitrophenyl-alpha-D-glucopyranoside as substrate preincubated for 10 mins followed by substrate addition and measured after 30 mins by spectrophotometric analysis
Cholinesterase = Cholinesterase (Homo sapiens, UniProt P06276); test: Inhibition of human plasma BuChE using butyrylthiocholine iodide as substrate preincubated for 5 mins followed by substrate addition and measured at 2 mins interval by Ellman's method
Chain of Cholinesterase (P06276 whole entry): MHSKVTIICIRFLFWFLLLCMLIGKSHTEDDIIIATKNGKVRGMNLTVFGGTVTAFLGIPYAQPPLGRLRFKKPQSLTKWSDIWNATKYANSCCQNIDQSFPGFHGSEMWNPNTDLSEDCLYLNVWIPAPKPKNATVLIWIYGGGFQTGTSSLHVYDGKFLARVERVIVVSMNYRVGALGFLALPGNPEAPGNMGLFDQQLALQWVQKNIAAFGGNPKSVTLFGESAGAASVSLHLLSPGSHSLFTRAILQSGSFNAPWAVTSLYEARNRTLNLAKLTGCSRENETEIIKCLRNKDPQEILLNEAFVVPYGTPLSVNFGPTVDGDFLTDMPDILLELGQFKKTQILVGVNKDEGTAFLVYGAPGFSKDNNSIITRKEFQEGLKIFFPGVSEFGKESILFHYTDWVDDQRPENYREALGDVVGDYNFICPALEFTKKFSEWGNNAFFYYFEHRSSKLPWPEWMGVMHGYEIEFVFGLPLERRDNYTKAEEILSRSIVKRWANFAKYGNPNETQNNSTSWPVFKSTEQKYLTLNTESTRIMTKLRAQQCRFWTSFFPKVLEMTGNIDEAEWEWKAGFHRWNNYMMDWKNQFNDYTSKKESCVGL

Trichomonas vaginalis = test: Trichomonacidal against metronidazole-susceptible Trichomonas vaginalis after 48 hrs by trypan blue exclusion assay; format: functional, organism-based
Lactobacillus jensenii = test: Inhibition of Lactobacillus jensenii ATCC 25258 assessed as reduction in number of cells by measuring turbidity after 24 hrs; format: organism-based; settings: ATCC 25258, 24 h
Spermatozoa = test: Spermicidal activity against human spermatozoa shaken for 10 secs by phase contrast microscopy; format: functional, cell-based
HeLa = test: Cytotoxicity against human HeLa cells after 24 hrs by MTT assay; format: cell-based
MDA-MB-231 = test: Cytotoxicity against human MDA-MB-231 cells incubated for 24 hrs by MTT assay; format: functional, cell-based; settings: MDA-MB-231, 24 h
Vero = test: Cytotoxicity against African green monkey Vero cells after 48 hrs by MTT assay; format: cell-based; settings: Chlorocebus sabaeus

Compound: O=C(/C=C/c1ccc(OCCN2CCCCC2)cc1)c1cc2ccccc2oc1=O
- Activity (Rattus norvegicus [1]): 3.3 mm3
- GI50 (MCF7): < 10 µg/mL
- GI50 (MDA-MB-435): 75.3 µg/mL (≈ 187 µM)

Compound: C/C(=N\NC(=S)Nc1ccc(F)cc1F)c1cc2ccccc2oc1=O
- MIC (Staphylococcus aureus [2]): 50 µg/mL (≈ 134 µM)
- MIC (Candida albicans): 100 µg/mL (≈ 268 µM)
- MIC (Aspergillus clavatus): 100 µg/mL (≈ 268 µM)
- MIC (Aspergillus niger): 100 µg/mL (≈ 268 µM)
- MIC (Escherichia coli): 50 µg/mL (≈ 134 µM)
- MIC (Pseudomonas aeruginosa): 100 µg/mL (≈ 268 µM)

Compound: NC(=S)N1N=C(c2cc3ccccc3oc2=O)CC1c1ccccc1 (stereo not given)
- IC50 (Urease): 358 nM

Compound: Cc1ccc(-n2c(-c3cc4ccccc4oc3=O)cs/c2=N/NC(=O)c2cc3ccccc3oc2=O)c(C)c1
- IC50 [3]: 1380 nM

Compound: Nc1cc(Cl)ccc1/C(=N/Nc1nc(-c2cc3ccccc3oc2=O)cs1)c1ccccc1
- IC50 [4]: 459 nM

Compound: COc1ccc(-c2cc(-c3cc4ccccc4oc3=O)nc(Cc3ccc(F)cc3)n2)cc1
- IC50 (A549): 16100 nM

Compound: C/C(=N\Nc1nc(-c2cc3ccccc3oc2=O)cs1)c1ccccc1Br
- IC50 [4]: 160 nM
- IC50 [5]: 34700 nM

Compound: C[C@@H]1[C@H](O)[C@@H](C)/C=C/C=C/C=C/C=C/C=C/C=C/C=C/[C@H](O[C@@H]2O[C@H](C)[C@@H](O)[C@H](N)[C@@H]2O)C[C@@H]2O[C@](O)(C[C@@H](O)C[C@@H](O)[C@H](O)CC[C@@H](O)C[C@@H](O)CC(=O)O[C@H]1C)C[C@H](O)[C@H]2C(=O)O [AMPHOTERICIN B]
- inhibition at 100 µM (Leishmania major [6]): 79.8%
- inhibition at 10 µM (Leishmania major [7]): 76.3%
- inhibition at 1 µM (Leishmania major [8]): 74.8%
- inhibition at 0.1 µM (Leishmania major [9]): 69.9%

Compound: O=C(Cc1cc(=O)oc2cc(O)ccc12)NCCCCCCCCNc1c2c(nc3ccccc13)CCCC2
- inhibition [10]: 82%

Compound: O=C(OCc1cc(=O)oc2c(O)c(O)ccc12)c1cc(O)c(O)c(O)c1
- IC50 [11]: 64000 nM

Compound: O=C(O)c1cn(C2CC2)c2cc(N3CCNCC3)c(F)cc2c1=O [CIPROFLOXACIN]
- MIC (Staphylococcus aureus [12]): 10 µg/mL (≈ 30.2 µM)

Compound: Cc1cccc(-n2c(-c3cc4ccccc4oc3=O)cs/c2=N/NC(=O)c2cc3ccccc3oc2=O)c1C
- inhibition at 100 µM (Leishmania major [6]): 70.4%
- inhibition at 10 µM (Leishmania major [7]): 66.2%
- inhibition at 1 µM (Leishmania major [8]): 60.7%
- inhibition at 0.1 µM (Leishmania major [9]): 53.9%

Compound: Cc1ccc(-n2c(-c3cc4ccccc4oc3=O)cs/c2=N/NC(=O)c2cc3ccccc3oc2=O)cc1C
- inhibition of growth at 10 µM (NCI-H157 [13]): 57.3%
- inhibition of growth at 1 µM (NCI-H157 [14]): 53.8%
- inhibition of growth at 100 µM (NCI-H157 [15]): 65%
- inhibition of growth at 0.1 µM (NCI-H157 [16]): 45.5%

Compound: O=c1oc2ccc(Cl)cc2cc1-c1nc2ccccc2[nH]1
- inhibition in vivo at 20 mg/kg (Rattus norvegicus [17]): 46.8%

Compound: Cc1cc(=O)oc2cc(Oc3nc(-c4ccc(B(O)O)s4)cn4c(-c5ccc(B(O)O)s5)cnc34)ccc12
- inhibition of growth at 10 µM (HOP-92): 92.3%

Compound: CCOC(=O)C(C)(C)Oc1ccc(C(=O)c2cc3cc(C)ccc3oc2=O)cc1
- IC50 [18]: 8510 nM

Compound: Cc1cc(=O)oc2cc(Oc3nc(-c4ccc(B(O)O)cc4)cn4c(-c5ccc(B(O)O)cc5)cnc34)ccc12
- inhibition of growth at 10 µM (A498): 90.1%

Compound: CC(C)(C)NC(=O)c1c(-c2ccccc2)nc(SCc2cc(=O)oc3ccc4ccccc4c23)[nH]c1=O
- MIC (Staphylococcus aureus [12]): 2.5 µg/mL (≈ 4.89 µM)

Compound: CCOC(=O)C(C)(C)Oc1ccc(C(=O)c2cc3cc([N+](=O)[O-])ccc3oc2=O)cc1
- IC50 [18]: 18600 nM

Compound: Cc1ccc(N2C(=O)/C(=C/c3ccc(F)cc3)S/C2=N\NC(=O)c2cc3ccccc3oc2=O)cc1
- IC50 [19]: 70 nM
- IC50 (Alpha glucosidase): 110 nM

Compound: COc1ccccc1N1C(=O)/C(=C/c2ccc(F)cc2)S/C1=N\NC(=O)c1cc2ccccc2oc1=O
- IC50 [19]: 380 nM

Compound: O=C(Nc1nc2ccccc2[nH]1)c1cc2ccccc2oc1=O
- inhibition in vivo at 20 mg/kg (Rattus norvegicus [17]): 42.9%

Compound: C/C(=N\Nc1nc(-c2cc3ccccc3oc2=O)cs1)c1ccccc1
- IC50 [4]: 120 nM
- IC50 [5]: 2940 nM

Compound: O=c1oc2ccc(Br)cc2cc1-c1nc2ccccc2[nH]1
- inhibition in vivo at 20 mg/kg (Rattus norvegicus [17]): 45.5%

Compound: Cc1cc(C)cc(-n2c(-c3cc4ccccc4oc3=O)cs/c2=N/NC(=O)c2cc3ccccc3oc2=O)c1
- inhibition at 48 h, 10 µM [20]: 64.2%
- inhibition at 48 h, 100 µM [21]: 66.8%
- inhibition at 48 h, 1 µM [22]: 59.4%
- inhibition at 48 h, 0.1 µM [23]: 55.5%

Compound: O=C(Cc1cc(=O)oc2cc(O)ccc12)NCCCNCCNCCCNc1c2c(nc3ccccc13)CCCC2
- IC50 (Acetylcholinesterase): 38 nM

Compound: C/C(=N\Nc1nc(-c2cc3ccccc3oc2=O)cs1)c1ccc(Br)cc1
- IC50 [4]: 110 nM
- IC50 [5]: 1710 nM

Compound: O=C(N/N=C/c1cc(Cl)cc(Cl)c1O)c1nc(-c2cc3ccccc3oc2=O)cs1
- IC50 [24]: 6240 nM

Compound: O=C(Cc1cc(=O)oc2cc(O)ccc12)NCCCCCCCNc1c2c(nc3ccccc13)CCCC2
- IC50 (Cholinesterase): 63 to 63.5 nM

Compound: O=C(c1ccc(O)cc1)C(c1c(O)c2ccccc2oc1=O)N1CCCCC1 (stereo not given)
- IC50 (Trichomonas vaginalis): 29400 nM
- IC50 (Lactobacillus jensenii): > 1000 µg/mL
- IC50 (Spermatozoa): 500000 nM
- IC50 (HeLa): 234 µg/mL (≈ 617 µM)

Compound: O=c1oc2ccccc2cc1-c1cc(-c2ccc(Cl)cc2)nc(Cc2ccc(F)cc2)n1
- IC50 (MDA-MB-231): 16500 nM
- IC50 (A549): 2150 nM

Compound: O=C(N/N=C/c1cc(Cl)ccc1O)c1nc(-c2cc3ccccc3oc2=O)cs1
- IC50 [24]: 8230 nM

Compound: O=Cc1c(-c2cc3cc(Br)ccc3oc2=O)[nH]c2ccccc12
- IC50 (Vero): 100000 nM
